# How the values were obtained:
# [1] = test system: HK-2 (human kidney proximal tubular cell); assay: XTT cell proliferation assay, protection against cisplatin cytotoxicity, HK-2; assay type: cell-based
# Experimental: HK-2 cells treated with culture medium served as a control. The respective survival rate was measured by cell proliferation kit XTT. All data are in triplicates.
# (§1) To evaluate the in vitro protection effect of test bismuth(III) complexes against cisplatin stress, two nontumorigenic normal human cell lines, HK-2 (human kidney proximal tubular cell) and MIHA (human hepatocyte cell) are incorporated herein for cell proliferation kit II XTT assay.
# (§2) The XTT assay was carried out according to the manufacturer's instruction (Roche Diagnostics, USA). Typically, 1-2×10^4 cells per well were grown in flat-bottom 96-well plates at 37° C. for an overnight under a humidified atmosphere of 5% CO2. Cells pellets were washed with PBS and treated with bismuth(III) complexes at various concentrations (1-100 μM) for 2 hours prior to the exposure to cisplatin (10 μM and 100 μM for HK-2 and MIHA cell line, respectively) for 2 days. Cells grown under culture medium alone were used as a negative control. After a fixed incubation time, 50 μl of the XTT labeling mixture was added to each well and the cells were incubated for 2 hours. The formation of formazan dyes, produced only by metabolic active cells, was detected spectrophotometrically at 490 nm.
# [2] = test system: MIHA (human hepatocyte cell); assay: XTT cell proliferation assay, protection against cisplatin cytotoxicity, MIHA; assay type: cell-based
# Experimental: MIHA cells treated with culture medium served as a control. The respective survival rate was measured by cell proliferation kit XTT. All data are in triplicates.
# as §1, §2
# testicular cancer = details: cited from earlier work
# female BALB/c mice = assay: Survival of cisplatin-treated mice (cisplatin induced nephrotoxicity); assay type: in vivo; details: 50 mg/kg orally Day -2, -1, 0, 2, 4; cisplatin 30 mg/kg i.p. Day 0; n=8
# Experimental: FIG. 5 Provides survival curves of cisplatin-treated mice with pretreatment of Bi-L1, Bi-L12 and BicitZ, respectively, showing the protective role of bimusth(III) complexes on cisplatin induced nephrotoxicity. All bismuth complexes (50 mg/kg) were administered orally on Day −2, Day −1, Day 0, Day 2 and Day 4. Cisplatin (30 mg/kg) was I.P. injected on Day 0. […] (Log-rank (Mantel-Cox) test, ***P=0.0004)
# [3] = highly dependent on pH and ionic strength
# [4] = test system: SKNLP neuroblastoma cells; assay: Cisplatin anti-tumor activity in SKNLP neuroblastoma tumor-bearing mice
# Experimental: 0.2 Million SKNLP neuroblastoma cells transfected with luminescent plasmid were inoculated into the adrenal gland of SCID beige mice. […] Cisplatin (7.5 mg/kg) was i.p. injected at Day 0, Day 7 and Day 14. Tumor growth was monitored by luminescent of the transfected tumor cells.
# SKNLP neuroblastoma cells (˜2×10^5 cells) were transfected with luminescent plasmid were inoculated into the adrenal gland of BALB/c nude mice. […] Cisplatin (7.5 mg/kg) was i.p. injected on Day 0, and Day 7. Tumor growth was monitored by luminescent of the transfected tumor cells.
# To evaluate whether Bi(III) complexes affect cisplatin's in vivo anti-tumor activity, SKNLP neuroblastoma cells transfected with luminescent plasmid were implanted into mice.
Compound,"cells survived after exposure to cisplatin only ([1]; cisplatin 10 μM, 2 days)","cells survived after exposure to cisplatin only ([2]; cisplatin 100 μM, 2 days)",overall cure rate (testicular cancer),"increase of cell viability when co-treated with cisplatin ([1]; bismuth(III) complex 1-100 μM 2 hours prior to cisplatin 10 μM for 2 days, XTT) [%]","increase of cell viability when co-treated with cisplatin ([2]; bismuth(III) complex 1-100 μM 2 hours prior to cisplatin 100 μM for 2 days, XTT) [%]",survival rate of cisplatin-treated mice (Kaplan-Meier) (female BALB/c mice),solubility of the complex in water [3],"effect on cisplatin's anti-cancer activity in tumor engrafted mice ([4]; SCID beige mice, oral 50 mg/Kg Day -1, 0 and every two days, cisplatin 7.5 mg/kg Day 0, 7, 14)","interference on cisplatin's chemotherapeutic effect ([4]; pretreatment at 100 mg/kg, cisplatin 7.5 mg/Kg, SCID beige tumor-bearing mice)","SKNLP tumor cells metastases in lung and liver (histology) ([4]; same experiments as FIG. 7 and FIG. 8, vs control and cisplatin alone)"
"N.N.[Cl][Pt][Cl] [cisplatin, cis-[PtCl2(NH3)2], reference compound]",Less than 40%,Less than 40%,over 90%,–,–,–,–,–,–,–
bismuth(III) zinc(II) citrate complex [BicitZ],–,–,–,16.7,28.5,higher survival rate,over 100 mM,negligible effects,no interference,delays SKNLP tumor cells metastases

# Source: patent publication US11554138B2, “Bismuth(III) complexes as adjuvants in the treatment of cancer using platinum-based chemotherapy” (THE UNIVERSITY OF HONG KONG, priority 2015, dated 2023)
